Test results: ChEMBL document CHEMBL5724914, “Linking interpersonal differences in gut microbiota composition and drug biotransformation activity” (2024)

What was measured:
[1] = (§1) The drug is tested on WLS-039 corresponding to human gut metagenome with ENA study accession number: PRJEB37062 and ENA sample accession number: ERS12561746 for biotransformation under anaerobic condition. The drug concentrations were measured over 9 timepoints collected between 0 and 24 hours of incubation by liquid-chromatography-coupled mass spectrometry (LC–MS); conditions: 2 µM
[2] = human gut metagenome, 24 h, 2 µM
[3] = as §1, with “Z-001” for “WLS-039”, “mouse” for “human”, “ERS12561801” for “ERS12561746”; conditions: 2 µM
[4] = human gut metagenome, 24 h, 2 µM; remark: listed apart in the source
[5] = human gut metagenome, 24 h, 2 µM; remark: listed apart in the source
[6] = human gut metagenome, 24 h, 2 µM; remark: listed apart in the source
[7] = human gut metagenome, 24 h, 2 µM; remark: listed apart in the source
[8] = human gut metagenome, 24 h, 2 µM; remark: listed apart in the source
[9] = human gut metagenome, 24 h, 2 µM; remark: listed apart in the source
[10] = human gut metagenome, 24 h, 2 µM; remark: listed apart in the source
[11] = as §1, with “Z-030” for “WLS-039”, “mouse” for “human”, “ERS12561829” for “ERS12561746”; conditions: 2 µM
[12] = as §1, with “Z-025” for “WLS-039”, “rabbit” for “human”, “ERS12561824” for “ERS12561746”; conditions: 2 µM
[13] = as §1, with “WLS-038” for “WLS-039”, “ERS12561745” for “ERS12561746”; conditions: 2 µM
[14] = as §1, with “Z-017” for “WLS-039”, “mouse” for “human”, “ERS12561816” for “ERS12561746”; conditions: 2 µM
[15] = as §1, with “Z-002” for “WLS-039”, “rabbit” for “human”, “ERS12561802” for “ERS12561746”; conditions: 2 µM
[16] = human gut metagenome, 24 h, 2 µM; remark: listed apart in the source
[17] = as §1, with “WLS-069” for “WLS-039”, “ERS12561748” for “ERS12561746”; conditions: 2 µM
[18] = human gut metagenome, 24 h, 2 µM; remark: listed apart in the source
[19] = human gut metagenome, 24 h, 2 µM; remark: listed apart in the source
[20] = human gut metagenome, 24 h, 2 µM; remark: listed apart in the source
Also: call rule not given here.

Bacterial Biotransformation [1] | Bacterial Biotransformation [2] | Bacterial Biotransformation [3] | Bacterial Biotransformation [4] | Bacterial Biotransformation [5] | Bacterial Biotransformation [6] | Bacterial Biotransformation [7] | Bacterial Biotransformation [8] | Bacterial Biotransformation [9] | Bacterial Biotransformation [10] | Bacterial Biotransformation [11] | Bacterial Biotransformation [12] | Bacterial Biotransformation [13] | Bacterial Biotransformation [14] | Bacterial Biotransformation [15] | Bacterial Biotransformation [16] | Bacterial Biotransformation [17] | Bacterial Biotransformation [18] | Bacterial Biotransformation [19] | Bacterial Biotransformation [20] | Structure (SMILES)
Compound metabolized | Compound metabolized | Compound NOT metabolized | Compound metabolized | Compound metabolized | Compound metabolized | Compound metabolized | Compound metabolized | Compound metabolized | Compound NOT metabolized | Compound metabolized | Compound NOT metabolized | Compound metabolized | Compound NOT metabolized | Compound NOT metabolized | Compound metabolized | Compound metabolized | Compound metabolized |  |  | CC1=C(CC(=O)O)c2cc(F)ccc2/C1=C\c1ccc([S+](C)[O-])cc1 (stereo not drawn)
Compound NOT metabolized | Compound metabolized | Compound metabolized | Compound metabolized | Compound metabolized | Compound NOT metabolized | Compound metabolized | Compound metabolized | Compound NOT metabolized | Compound NOT metabolized |  |  | Compound NOT metabolized |  |  | Compound NOT metabolized | Compound NOT metabolized | Compound metabolized | Compound NOT metabolized | Compound NOT metabolized | COCCCC/C(=N\OCCN)c1ccc(C(F)(F)F)cc1.O=C(O)/C=C\C(=O)O [FLUVOXAMINE MALEATE]
Compound metabolized | Compound metabolized |  | Compound metabolized | Compound metabolized | Compound metabolized | Compound metabolized | Compound NOT metabolized | Compound metabolized | Compound metabolized |  |  | Compound metabolized |  |  | Compound metabolized | Compound metabolized | Compound metabolized | Compound NOT metabolized | Compound NOT metabolized | O=C([O-])C[C@H](O)C[C@H](O)/C=C/c1c(C2CC2)nc2ccccc2c1-c1ccc(F)cc1.O=C([O-])C[C@H](O)C[C@H](O)/C=C/c1c(C2CC2)nc2ccccc2c1-c1ccc(F)cc1.[Ca+2] [PITAVASTATIN CALCIUM]
 | Compound NOT metabolized | Compound NOT metabolized | Compound NOT metabolized |  |  | Compound NOT metabolized | Compound NOT metabolized | Compound NOT metabolized | Compound NOT metabolized | Compound NOT metabolized |  |  | Compound NOT metabolized | Compound NOT metabolized | Compound NOT metabolized |  | Compound NOT metabolized | Compound NOT metabolized | Compound NOT metabolized | CN(C/C=C/C#CC(C)(C)C)Cc1cccc2ccccc12 [TERBINAFINE]

The remaining lines, values behind:

Structure (SMILES) | Bacterial Biotransformation [1] | Bacterial Biotransformation [2] | Bacterial Biotransformation [3] | Bacterial Biotransformation [4] | Bacterial Biotransformation [5] | Bacterial Biotransformation [6] | Bacterial Biotransformation [7] | Bacterial Biotransformation [8] | Bacterial Biotransformation [9] | Bacterial Biotransformation [10] | Bacterial Biotransformation [11] | Bacterial Biotransformation [12] | Bacterial Biotransformation [13] | Bacterial Biotransformation [14] | Bacterial Biotransformation [15] | Bacterial Biotransformation [16] | Bacterial Biotransformation [17] | Bacterial Biotransformation [18] | Bacterial Biotransformation [19] | Bacterial Biotransformation [20]
N[C@@H](Cc1ccc(N(CCCl)CCCl)cc1)C(=O)O | Compound metabolized | Compound metabolized | Compound metabolized | Compound NOT metabolized | Compound metabolized | Compound metabolized | Compound metabolized | Compound NOT metabolized |  | Compound metabolized |  |  | Compound metabolized |  | Compound metabolized |  |  | Compound metabolized | Compound metabolized | Compound metabolized
Cc1nc(Nc2ncc(C(=O)Nc3c(C)cccc3Cl)s2)cc(N2CCN(CCO)CC2)n1 [DASATINIB ANHYDROUS] | Compound metabolized | Compound metabolized |  | Compound metabolized | Compound metabolized | Compound metabolized | Compound metabolized | Compound metabolized | Compound NOT metabolized | Compound NOT metabolized |  |  | Compound metabolized |  |  | Compound metabolized | Compound NOT metabolized | Compound metabolized | Compound NOT metabolized | Compound NOT metabolized
CN1CCN(C2=Nc3ccccc3Oc3ccc(Cl)cc32)CC1.O=C(O)CCC(=O)O [LOXAPINE SUCCINATE] | Compound NOT metabolized | Compound NOT metabolized |  | Compound NOT metabolized | Compound NOT metabolized | Compound NOT metabolized | Compound NOT metabolized | Compound NOT metabolized | Compound NOT metabolized | Compound NOT metabolized |  |  | Compound NOT metabolized |  |  | Compound NOT metabolized | Compound NOT metabolized | Compound NOT metabolized | Compound NOT metabolized | Compound NOT metabolized
N#Cc1ccc2c(c1)N(CCCN1CCC(O)CC1)c1ccccc1S2 [PERICIAZINE] | Compound NOT metabolized | Compound metabolized |  | Compound metabolized | Compound NOT metabolized | Compound NOT metabolized | Compound metabolized | Compound NOT metabolized | Compound metabolized | Compound NOT metabolized |  |  | Compound metabolized |  |  | Compound metabolized | Compound metabolized | Compound NOT metabolized | Compound NOT metabolized | Compound NOT metabolized
O=C1N=C([O-])NC1(c1ccccc1)c1ccccc1.[Na+] [PHENYTOIN SODIUM] | Compound NOT metabolized | Compound metabolized | Compound NOT metabolized | Compound NOT metabolized | Compound metabolized | Compound metabolized | Compound metabolized | Compound metabolized | Compound NOT metabolized | Compound metabolized |  | Compound NOT metabolized | Compound NOT metabolized | Compound NOT metabolized | Compound NOT metabolized | Compound metabolized | Compound metabolized | Compound metabolized | Compound NOT metabolized | Compound NOT metabolized
N#Cc1ccc2[nH]cc(CCCCN3CCN(c4ccc5oc(C(N)=O)cc5c4)CC3)c2c1 [VILAZODONE] | Compound metabolized | Compound metabolized | Compound metabolized | Compound metabolized | Compound metabolized | Compound metabolized | Compound metabolized |  | Compound metabolized | Compound metabolized | Compound metabolized | Compound NOT metabolized |  | Compound NOT metabolized | Compound metabolized | Compound metabolized |  | Compound metabolized | Compound NOT metabolized | Compound metabolized
